Results: patent US9120804B2, “8-substituted 2-amino-[1,2,4] triazolo [1, 5-A] pyrazines as Syk tryrosine kinase inhibitors and GCN2 serin kinase inhibitors” (Merck Patent GmbH, priority 2012, dated 2015)

Tests used:
[1] = molecular target: GCN2 (Homo sapiens, UniProt Q9P2K8); assay: GCN2 enzyme assay; format: biochemical
[2] = molecular target: T1, SYK (Homo sapiens, UniProt P43405); assay: SYK flash plate assay (enzyme assay); format: biochemical
T1 construct: 2.5 nM SYK, 400 nM Biotin-Aha-Aha-KEDPDYEWPSAKK
In short: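 Radiometric Flashplate format: biotinylated peptide substrate (400 nM) and 33P-labelled ATP (10 μM) react with 2.5 nM enzyme for 1 hour at 30 °C in Hepes buffer, pH 7.5. After EDTA quench and washing, counts are taken; staurosporine defines non-specific signal, and IC50 values are derived.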

Sequence of GCN2 (Q9P2K8 whole entry): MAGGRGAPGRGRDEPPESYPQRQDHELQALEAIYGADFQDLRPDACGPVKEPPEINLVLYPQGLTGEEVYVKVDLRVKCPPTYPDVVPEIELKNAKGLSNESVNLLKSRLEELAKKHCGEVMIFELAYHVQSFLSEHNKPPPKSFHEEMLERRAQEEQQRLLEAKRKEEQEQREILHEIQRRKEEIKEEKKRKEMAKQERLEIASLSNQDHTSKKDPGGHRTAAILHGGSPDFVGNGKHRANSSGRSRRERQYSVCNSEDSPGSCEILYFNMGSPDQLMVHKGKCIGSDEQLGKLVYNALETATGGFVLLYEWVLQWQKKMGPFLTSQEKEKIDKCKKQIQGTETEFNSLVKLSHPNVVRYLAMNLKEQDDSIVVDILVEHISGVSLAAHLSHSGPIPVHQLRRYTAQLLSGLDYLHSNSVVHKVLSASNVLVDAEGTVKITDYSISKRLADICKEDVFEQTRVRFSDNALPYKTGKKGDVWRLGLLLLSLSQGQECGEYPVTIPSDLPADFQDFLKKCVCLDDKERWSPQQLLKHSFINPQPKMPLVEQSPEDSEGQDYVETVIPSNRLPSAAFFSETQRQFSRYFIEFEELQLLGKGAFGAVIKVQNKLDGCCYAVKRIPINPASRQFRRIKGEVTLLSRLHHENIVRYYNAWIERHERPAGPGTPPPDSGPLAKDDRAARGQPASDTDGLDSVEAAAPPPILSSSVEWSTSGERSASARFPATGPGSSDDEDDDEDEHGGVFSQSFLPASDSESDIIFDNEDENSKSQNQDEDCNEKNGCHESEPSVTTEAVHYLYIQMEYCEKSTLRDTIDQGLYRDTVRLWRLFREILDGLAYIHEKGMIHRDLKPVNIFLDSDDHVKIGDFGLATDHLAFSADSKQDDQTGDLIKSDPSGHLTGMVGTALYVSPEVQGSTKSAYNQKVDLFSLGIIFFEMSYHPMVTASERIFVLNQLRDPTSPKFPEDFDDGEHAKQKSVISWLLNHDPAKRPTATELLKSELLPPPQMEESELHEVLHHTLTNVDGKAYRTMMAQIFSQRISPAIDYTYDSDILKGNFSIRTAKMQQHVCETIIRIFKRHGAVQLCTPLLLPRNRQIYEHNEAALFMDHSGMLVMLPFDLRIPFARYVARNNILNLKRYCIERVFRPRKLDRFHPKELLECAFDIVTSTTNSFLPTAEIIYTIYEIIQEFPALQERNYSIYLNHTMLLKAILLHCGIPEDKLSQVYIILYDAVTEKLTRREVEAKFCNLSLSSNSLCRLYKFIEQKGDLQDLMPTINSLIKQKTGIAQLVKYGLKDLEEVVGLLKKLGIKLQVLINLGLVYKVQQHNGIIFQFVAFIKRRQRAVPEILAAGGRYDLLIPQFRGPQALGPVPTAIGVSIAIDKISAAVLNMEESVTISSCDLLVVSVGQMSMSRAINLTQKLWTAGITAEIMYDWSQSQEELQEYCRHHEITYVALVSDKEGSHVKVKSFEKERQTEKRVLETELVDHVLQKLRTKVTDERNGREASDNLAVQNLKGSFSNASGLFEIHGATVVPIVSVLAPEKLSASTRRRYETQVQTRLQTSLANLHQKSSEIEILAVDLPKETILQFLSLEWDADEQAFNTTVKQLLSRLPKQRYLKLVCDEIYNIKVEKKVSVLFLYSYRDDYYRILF

IC50 [1] [µM] | IC50 [2] [µM] | Compound
0.3 to 3 | 0.3 to 3 | Cc1nc2cc(Nc3nc4c(-c5ccc(S(C)(=O)=O)cc5)nccn4n3)ccc2[nH]1 [C58, [8-(4-methanesulfonyl-phenyl)-[1,2,4]triazolo[1,5-a]pyrazin-2-yl]-(2-methyl-1H-benzoimidazol-5-yl)-amine]
3 to 50 | 0.3 to 3 | COc1cc(Nc2nc3c(N4CCC(N)CC4)nccn3n2)cc(OC)c1 [C50, [8-(4-amino-piperidin-1-yl)-[1,2,4]triazolo[1,5-a]pyrazin-2-yl]-(3,5-dimethoxy-phenyl)-amine]
3 to 50 | 0.3 to 3 | COc1ccc(Nc2nc3c(-c4cnn(C)c4)nccn3n2)cc1 [C2, (4-Methoxy-phenyl)-[8-(1-methyl-1H-pyrazol-4-yl)-[1,2,4]triazolo[1,5-a]pyrazin-2-yl]-amine]
3 to 50 | 0.3 to 3 | Cn1cc(-c2nccn3nc(Nc4ccc(S(N)(=O)=O)cc4)nc23)cn1 [C16, 4-[8-(1-Methyl-1H-pyrazol-4-yl)-[1,2,4]triazolo[1,5-a]pyrazin-2-ylamino]-benzenesulfonamide]
3 to 50 | 0.1 to 0.3 | Cn1cc(-c2nccn3nc(Nc4ccc5c(c4)NC(=O)C(C)(C)O5)nc23)cn1 [C80, 2,2-dimethyl-6-[8-(1-methyl-1H-pyrazol-4-yl)-[1,2,4]triazolo[1,5-a]pyrazin-2-ylamino]-4H-benzo[1,4]oxazin-3-one]
0.3 to 3 | 0.3 to 3 | COc1ccc(Nc2nc3c(-c4cnn(C)c4)nccn3n2)cc1OC [C6, (3,4-Dimethoxy-phenyl)-[8-(1-methyl-1H-pyrazol-4-yl)-[1,2,4]triazolo[1,5-a]pyrazin-2yl]-amine]
3 to 50 | < 0.1 | CC1(C)C(=O)Nc2cc(Nc3nc4c(N5CC6(COC6)C5)nccn4n3)ccc21 [C91, 3,3-dimethyl-6-[8-(2-oxa-6-aza-spiro[3.3]hept-6-yl)-[1,2,4]triazolo[1,5-a]pyrazin-2-ylamino]-1,3-dihydro-indol-2-one]
3 to 50 | < 0.1 | CC1(C)C(=O)Nc2cc(Nc3nc4c(N5CCC[C@H](N)C5)nccn4n3)ccc21 [C99, 6-[8-((S)-3-amino-piperidin-1-yl)-[1,2,4]triazolo[1,5-a]pyrazin-2-ylamino]-3,3-dimethyl-1,3-dihydro-indol-2-one]
0.3 to 3 | 0.1 to 0.3 | Cc1nn(C)cc1-c1nccn2nc(Nc3ccc4c(c3)NC(=O)C4(C)C)nc12 [C69, 6-[8-(1,3-dimethyl-1H-pyrazol-4-yl)-[1,2,4]triazolo[1,5-a]pyrazin-2-ylamino]-3,3-dimethyl-1,3-dihydro-indol-2-one]
3 to 50 | 0.3 to 3 | CC1(C)C(=O)Nc2cc(Nc3nc4c(N5CCC(N6CCNC6=O)CC5)nccn4n3)ccc21 [C104, 3,3-dimethyl-6-{8-[4-(2-oxo-imidazolidin-1-yl)-piperidin-1-yl]-[1,2,4]triazolo[1,5-a]pyrazin-2-ylamino}-1,3-dihydro-indol-2-one]
